Results reported in patent US12083196B2, “Personal cleansing compositions with surfactants for increased foam performance” (ECOLAB USA INC., priority 2020, dated 2024).

Assays:
[1] = SITA Foam Analyzer foam creation; assay type: physicochemical; details: single surfactant, 1%, FIG. 1
Excerpt: The reagents used below include: • Alpha-Step® PC-48 is a C10-16 sodium methyl 2-sulfolaurate and disodium 2-sulfolaurate available from Stepan; • Stepan-Mild® L3 is a predominantly C12 reaction product of lauryl alcohol and lactic acid available from Stepan; • SLES is sodium laureth sulfate; • Cola® Teric is an amphoteric sultaine available from Colonial Chemical, Inc.; • Glucopon® […] is an alkyl polyglycoside available from BASF Corporation; • Suga® Nate is a sodium laurylglucosides hydrooxypropylsulfonate available from Colonial Chemicals, Inc; • Lathanol® LAL is a sodium lauryl sulfoacetate available from Stepan. All experiments ran through the SITA Foam Analyzer were as follows: Equipment: • 1) Foaming Apparatus • 2) SITA Software Reagents: • 1) 250 mL of each solution • 2) DI water Preparation: Equipment is prepared by turning the water bath on with ample time to warm up before running tests. Adjust water bath to desired temperature. Quality Assurance: Run a positive and negative control for every experiment. Ensure equipment is clean and free from any residual surfactant chemistry beforehand. In each experiment set, proper differentiation between chemistries can be seen if at least one of the tested chemistries has an “S” curve that depicts a change in the initial foam building and the lathering step. Experimental Procedure: • 1) Prepare water bath • 2) Open the “SITA-foam” software on the computer. […] Foam Generation • i. Series Count (cycles): number of measurement replicates (3-triplicate) • ii. Fill With: Volume of sample liquid (250 mL for each test) • iii. Stir Count: Number of stirrings for each test (70). This is also the number of measurements for each cycle. • iv. Stir Time: Stirring duration of sample (10 sec) • v. Revolution: RPM o the stirrer (900 RMP) • b. Cleansing • i. Click the shower icon to activate the automatic cleansing and rinsing function. The vessel will be cleaned automatically after each cycle of measurements. • ii. Normal cleansing will rinse out the vessel many times. Small cleansing indicates a faster cleansing process. All above parameters can be saved • 5) After setting the parameters, click on “Start Measurement” which is the green “Play” button to proceed with the experiment • 6) After each cycle of experiments automatic cleansing and rinsing is done in preparation for the next cycle of measurements as long as the instrument is connected to tap water or a cleansing liquid reservoir • 7) Each click on the green “Start Measurement” icon opens a new window. The current sample measurement results are all in the same project folder. To rename sample measurement files, right click on the open sample window, and click “save” to rename your sample file • 8) If an error occurs at any point with your sample, the measurement reading can be stopped by clicking the red square “Stop icon” or by pressing the large red button on the machine • 9) Organize the graph generated with the icons in the fourth section of the tool bar: create new plot, add/remove data from plot, change axis properties, and view properties. Click on the “Create new plot” icon to view the plot after the experiment is done or if it is still running. Right click to rename the plot, insert or remove the plot and display the foam buildup, foam decay, or both Establishing initial foaming of the single surfactants is important to establish baselines for comparison for the combinations of various surfactants. To establish the foaming properties of single surfactants, a high amount of each surfactant was analyzed in the SITA Foam Analyzer as described above. The final concentration of each surfactant in solution was 1%. The surfactants tested were sodium lauryl sulfate (SLES), a betaine, Cola® Teric CBS, Glucopon® […], Lathanol® LAL, and Suga® Nate 160NC. […] The compositions were tested for foaming using the SITA Foam Analyzer as described above. […]

[2] = test system: Staphylococcus aureus (ATCC 6538), Escherichia coli (ATCC 11229), Enterobacter aerogenes (ATCC 13048), Burkholderia cepacian (ATCC 25416), Pseudomonas …; experiment: Preservative test, bacterial inoculum; assay type: cell-based; details: Lathanol LAL in preserved compositions
Experimental: (§1) The 7 different compositions in Table 4 were tested for their preservative ability, with composition 11 being a negative control as it lacks either phenoxyethanol or benzoic acid. To test the compositions, a bacterial inoculum and a yeast and mold inoculum were created. The bacterial inoculum comprised of equal parts of Staphylococcus aureus (ATCC 6538), Escherichia coli (ATCC 11229), Enterobacter aerogenes (ATCC 13048), Burkholderia cepacian (ATCC 25416), and Pseudomonas aeruginosa (ATCC 15442). The yeast and mold inoculum comprised of equal parts of Candida albicans (ATCC 10231), Saccharomyces cerevisiae (ATCC 834), and Aspergillus niger (ATCC 16404).
(§2) The inoculates were incubated for 3 days with the bacterial inoculum at 32° C. and the yeast and mold inoculum at 26° C. The preservative compositions were added, and samples measured at 7, 14, 21, and 28 days. A sample passed if no bacteria or yeast and mod survived after Day 7, conditionally passed if there was a greater than 2.0 log reduction on day 7 when compared to day 3, with no additional growth on days 14, 21, or 28 for the bacterial samples, and if there was not more than a 0.5 log increase from the initial inoculated count at days 14 and 28 for the yeast and mold samples. The results are summarized in Table 5 for bacterial samples and Table 6 for yeast and mold.

[3] = test system: Candida albicans (ATCC 10231), Saccharomyces cerevisiae (ATCC 834), Aspergillus niger (ATCC 16404); experiment: Preservative test, yeast and mold inoculum; assay type: cell-based; details: Lathanol LAL in preserved compositions
Experimental: as §1, §2

Row | Compound | onset of foam saturation (in words) [1] | interference with preservatives, bacteria (in words) [2] | interference with antifungal or antimold capabilities (in words) [3]
1 | sodium laurylglucosides hydrooxypropylsulfonate [Suga® Nate 160NC] | performing more slowly |  | 
2 | CCCCCCCCCCCCOC(=O)CS(=O)(=O)O.[Na] [Lathanol® LAL, sodium lauryl sulfoacetate] | performing more slowly | does not interfere with the addition of preservatives | does not interfere with the antifungal or antimold capabilities
3 | C[N+](C)(C)CC(=O)O [betaine] | reached saturation at earlier cycles/readings |  | 
